US20110165145A1, “IGF-II/IGF-IIE BINDING PROTEINS” (priority 2008, published 2011)

Experiments:
[1] = tested on: IGF-I induced IGF-IR phosphorylation; assay: IGF-I induced IGF-IR phosphorylation in Hep3B cells (IP/WB); format: cell-based; conditions: 10 nM DX-2647
Description: (§1) After being washed twice with ice-cold PBS containing 1 mM sodium orthovanadate, cells were lysed and immunoprecipitated with anti-IGF-IR antibody. Immunoprecipitated proteins were resolved in a 4-12% Bis-tris gel, and transferred to a PVDF membrane. The membrane was probed with anti-phospho-IGF-IR (p-IGF-1R) antibody first, and then stripped and re-probed with anti-IGF-IR antibody for detection of total IGF-1R proteins.

[2] = target: T1, IGF-IIE (Homo sapiens, UniProt P01344); assay: SPR affinity of DX-2647 (IgG captured on anti-human Fc chip), IGF-IIE; conditions: 1:1 binding model
T1 construct: the construct comprising amino acids 1-104, which encompass the E domain

[3] = target: T1, IGF-IIE; assay: SPR assays of DX-2647 binding to IGF-IIE complexed with receptors/IGFBPs; conditions: FIGS. 5A and 5B
Description: (§2) While the IGF-IR and IR-A are the principal mediators of the biological activity of IGF-II, the protein can bind with high affinity to a number of other proteins that include a family of six serum IGF-binding proteins (IGFBP 1-6), and the cell-surface mannose-6-phosphate receptor (IGF-IIR).

[4] = target: T2, IGF-II (Homo sapiens, UniProt P01344); assay: SPR assays of DX-2647 binding to IGF-II complexed with receptors/IGFBPs
T2 construct: IGF-II (amino acids 1-67)
Description: as §2

[5] = tested on: HepG2 human hepatoma cells; assay: HepG2 anchorage-independent colony formation in soft agar; format: cell-based; conditions: 10% FCS, two weeks
Description: Cells were seeded in growth medium plus 10% FCS in soft agar in the presence of increasing concentrations of antibody. Colonies>50 cells were counted after two weeks. […]

[6] = tested on: Hep3B cells; assay: Hep3B anchorage dependent colony formation assay; format: cell-based; conditions: two concentrations; 10% FBS; 1 week
Description: Colonies>50 cells were scored in three independent experiments, each with triplicate dishes.

[7] = tested on: IGF-IR phosphorylation in Colo205 cells; assay: IGF-IR phosphorylation in Colo205 cells; format: cell-based
Description: Upon ligand binding, IGF-1R undergoes autophosphorylation on tyrosine residues of the two β-subunits.

[8] = tested on: IGF-II-induced IGF-1R phosphorylation in HepG2 cells; assay: IGF-II-induced IGF-1R phosphorylation in HepG2 cells (IP/WB); format: cell-based; conditions: 10 min
Description: as §1

[9] = tested on: autocrine IGF-II induced IGF-1R phosphorylation in Hep3B cells; assay: Autocrine (endogenous) IGF-II induced IGF-1R phosphorylation in Hep3B cells (IP/WB); format: cell-based; conditions: 10 nM, 48 h serum free
Description: Hep3B cells synthesize and secrete IGF-II which in turn binds IGF-1R and induces IGF-1R phosphorylation in an autocrine fashion. The autocrine IGF-II induced IGF-1R phosphorylation can be detected by IP/WB analysis after 48 h serum starvation of cells. […] To perform the experiments, Hep3B cells were seeded and cultured for 24 h. […] After being washed twice with ice-cold PBS containing 1 mM sodium orthovanadate, cells were lysed and immunoprecipitated with anti-IGF-IR antibody. Immunoprecipitated proteins were resolved in a 4-12% Bis-tris gel, and transferred to a PVDF membrane. The membrane was probed with anti-phospho-IGF-IR (p-IGF-1R) antibody first, and then stripped and re-probed with anti-IGF-IR antibody for detection of total IGF-1R proteins.

[10] = tested on: Colo205 cells; assay: Colo205 cell proliferation in complete medium containing 10% FBS; format: cell-based; conditions: 2 μM, 4 days
Description: The plate was placed in a 37° C. incubator with 5% CO2 for 4 days. Proliferation was measured by CellTiter 96Aqueous One Solution Reagent (Promega). […] Colo205 cells have two cell populations in culture vessels.

[11] = tested on: IGF-II induced Colo205 cell proliferation; assay: IGF-II induced Colo205 cell proliferation in serum free medium; format: cell-based; conditions: 2 nM IGF-II, 96 h
Description: In this experiment, cells were cultured in serum free medium containing 2 nM IGF-II. […] Neutralizing IGF-II antibody (R&D Systems) was used at 333 nM as a positive control. […] IGF-II neutralizing antibody from R&D at 333 nM was used as a positive control. The plate was placed in a 37° C. incubator with 5% CO2 for 4 days. Proliferation was measured by CellTiter 96Aqueous One Solution Reagent (Promega).

[12] = target: IGF-I (Homo sapiens, UniProt P05019); assay: SPR affinity of DX-2647, IGF-I; conditions: 1:1 binding model
Description: IGF-II and the related growth factor, IGF-I, share 70% homology at the amino acid level.

[13] = tested on: HepG2 cells; assay: HepG2 anchorage dependent colony formation; format: cell-based; conditions: 1 nM; 10% FBS; 7 days
Description: HepG2 cells were seeded into a 6-well plate at 1000 cells/well in 2 ml of culture medium containing 10% FBS. […] Isotype control IgG (Ctrl. IgG) was used at 100 nM. After incubation cells were fixed and stained with crystal violet blue. Five pictures were taken randomly from each well and data were analyzed using the MetaMorph software. The results are summarized graphically in FIG. 10.

[14] = tested on: IGF-II-induced IGF-1R phosphorylation in Hep3B cells; assay: IGF-II-induced IGF-1R phosphorylation in Hep3B cells (IP/WB); format: cell-based
Description: as §1

[15] = target: T2, IGF-II; assay: SPR affinity of DX-2647 (IgG captured on anti-human Fc chip), IGF-II; conditions: 1:1 binding model
[16] = tested on: human SKUT-1 myosarcoma cell; assay: Cisplatin (CDDP)-induced cytotoxicity in SKUT-1 cells (CellTitreBlue); format: cell-based; conditions: 20% FCS, 48 hours
[17] = tested on: human breast cancer cells; conditions: immunodeficient mice; cited from earlier work

T2 sequence (P01344 25-91): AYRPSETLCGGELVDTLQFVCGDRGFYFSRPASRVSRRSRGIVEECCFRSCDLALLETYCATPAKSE
T1 sequence (P01344 25-128): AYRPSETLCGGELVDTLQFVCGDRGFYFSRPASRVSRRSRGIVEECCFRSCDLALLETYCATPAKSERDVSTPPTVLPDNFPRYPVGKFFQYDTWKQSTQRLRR
IGF-I, sequence (P05019 49-118 limits assumed, species assumed): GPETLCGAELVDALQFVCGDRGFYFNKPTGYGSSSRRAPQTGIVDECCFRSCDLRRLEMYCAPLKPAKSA

## DX-2647: IGF II/IGF IIE inhibitory antibody germlined from 566A-M0064-F02 parental clone; SEQ ID NO: 59 and 60
[1]
  inhibition of IGF-I induced IGF-IR phosphorylation: failed to show significant inhibition
[2]
  ka IGF-IIE: 2.06 E6 M-1s-1
  kd IGF-IIE: less than 2 E-5 s-1
[3]
  ability to bind IGF-IIE complexed with the IGFBPs assayed: inhibited
  blocking of IGF-IIE binding to all three cell-surface receptors for IGF-II: blocks the binding
[4]; FIGS. 5A and 5B
  ability to bind IGF-II complexed with the IGFBPs assayed: inhibited
  blocking of IGF-II binding to all three cell-surface receptors for IGF-II: blocks the binding
[4]; Fc-captured antibody, FIG. 5A
  binding to IGFBP-1 alone: does not bind
  binding to free IGF-II: binds free IGF-II
  binding to pre-formed complex of IGF-II and IGFBP-1: does not bind
[5]
  inhibition of HepG2 colony formation in soft agar: strongly inhibited
[5]; ±0.74 standard error, read-out: mean IC50, anchorage-independent growth of HepG2 cells
  IC50: 1.5 nM
[6]
  inhibition of colony formation of Hep3B cells: inhibited colony formation in a dose-dependent manner
[7]
  effective concentration for inhibition of IGF-IR phosphorylation: 10 nM
[8]; 0.3 nM DX-2647, IGF-II 2.6 nM
  inhibition of IGF-II-induced IGF-1R phosphorylation: Partial inhibition
[8]; 3 nM DX-2647, IGF-II 2.6 nM
  inhibition of IGF-II-induced IGF-1R phosphorylation: complete inhibition
[9]
  inhibition of autocrine IGF-II induced IGF-1R phosphorylation: significant inhibitory effect
[10]
  inhibition of Colo205 proliferation in complete growth medium: significantly inhibited
[11]
  inhibition of IGF-II induced Colo205 cell proliferation: inhibited
[11]; 1 nM to 100 nM tested
  lowest concentration showing maximum potency in inhibiting IGF-II stimulated Colo205 proliferation: 10 nM
[12]
  ka IGF-I: 5.8e+06 M⁻¹ s⁻¹
  kd IGF-I: 0.1 s⁻¹
[13]
  inhibition of colony-forming ability of HepG2 cells: significantly inhibited
[14]; 0.1 nM DX-2647
  inhibition of IGF-II-induced IGF-1R phosphorylation: partial inhibition
[14]; 1 nM DX-2647
  inhibition of IGF-II-induced IGF-1R phosphorylation: complete inhibition
[15]
  ka IGF-II: 1.06 E6 M-1s-1
  kd IGF-II: 2.38 E-5 s-1
[16]
  enhancement of cisplatin (CDDP)-induced cellular cytotoxicity: potently enhanced

## pegvisomant: PEGylated analog of human growth hormone, 191 amino acid residues, acting as GH receptor antagonist
[17]
  growth of human breast cancer cells grown as xenografts: inhibits the growth
